These results are taken from PMC6828666, “Discovery of holoenzyme-disrupting chemicals as substrate-selective CK2 inhibitors” (Scientific Reports, 2019).

In one experiment the test system is MDA-MB231 cells. The experiment is described as follows: Cell death by propidium iodide live-cell imaging (IncuCyte). The experiment is classed as cell-based. The following applies: for effect of pan-caspase inhibitor Z-VAD on compound-induced cell death: 80 μM compound, 20 μM Z-VAD. The method, then: Figure 5 Cellular effects of compounds 3, 4 and 6. MCF10A cells were incubated for 24 h with either DMSO or 30 μM TAT or 30 μM TAT-Pc or 25 μM 6 (a) or with increasing concentrations of 6 (b) or 3 (c). MCF10A cells were incubated for 48 h with either DMSO or with increasing concentrations of 3 or 6 (d). Cells were then lysed and analyzed by western blot with the indicated antibodies. Blot images are representative of at least three independent experiments. Uncropped blots are shown in Supplementary Fig. S16. (e) MDA-MB231 cells were treated with 40 μM 6 (⚬), 4 (▴) or 3 (X). (f) MDA-MB231 cells were treated for 30 h with increasing concentrations of 6 (⚬) or 4 (▴). Insert: cells were treated for 30 h with 80 μM 6 or 10 μM CX-4945. (g) Cells were incubated with 80 μM 6 or 4 in the absence or presence of 20 μM Z-VAD. […] (h) MDA-MB231 cells (⚬) or MCF10A cells (⦁) were incubated for 24 h with 80 μM 6. Cell death was automatically quantified from images captured every 3 h for the duration of the experiments using an Essen IncuCyte Zoom live-cell microscopy incubator. Error bars represent the SEM of two biological replicates derived from technical triplicates.
Cells grown on 96-well flat-bottomed plates (Corning Falcon) were tracked using an Essen IncuCyte Zoom live-cell microscopy instrument, an automated live cell imager with high-throughput capabilities and built-in data analysis. Experiments were conducted at 37 °C and 5% CO2. The software incorporated into the IncuCyte Zoom was used to analyze the images.
Cells plated at equal density (2 × 10^4 cells/well) were treated with the indicated inhibitors in cell culture medium containing 0.5 μg/ml Propidium iodide (Sigma-Aldrich). Images of PI-stained red fluorescent cells were captured every 3 h for the duration of the experiment. For apoptosis detection, 50 μL/mL fluorochrome-conjugated Annexin V (Molecular Probes) was added to the medium together with Propidium iodide and apoptotic cell numbers were calculated.

Another experiment addresses T1, CK2α2β2 holoenzyme (Homo sapiens, UniProt P68400).
T1 construct: made in house; host or cells: Escherichia coli (CK2α)
Kind of experiment: CK2 kinase assay with CK2β-dependent peptide substrate (eIF2-derived). The following applies: for IC50: phosphorylation of CK2β-dependent peptide substrate. It counts as biochemical. The protocol:
First, all the compounds were dissolved at 200 μM in 50 mM Tris-HCl pH 7.5 buffer containing 0.1 M NaCl and 5% DMSO; the compounds that precipitated under these conditions were discarded. The 32 remaining compounds were diluted at 200 μM in the kinase buffer and centrifuged at 14,000 g. The supernatant was then assayed for ability to inhibit phosphorylation of a CK2β-dependent peptide substrate. For this, a 22-residue long N-terminal fragment of the eukaryotic translation initiation factor 2 (eIF2), known to be exclusively phosphorylated by the CK2α2β2 holoenzyme[4] was used as a substrate. […]
Final concentration of ATP was 100 μM. Assays were performed under linear kinetic conditions for 5 min at room temperature before termination by the addition of 60 μL of 4% TCA. ^32P incorporation in peptide substrate was determined as previously described. […]

Experiment [1] has as its system Akt phosphorylation at Ser129 in MCF10A cells. The experiment is described as follows: Western blot of Akt Ser129 phosphorylation. The experiment is classed as cell-based, human. Conditions: 48 h. The protocol:
Figure 5 Cellular effects of compounds 3, 4 and 6. MCF10A cells were incubated for 24 h with either DMSO or 30 μM TAT or 30 μM TAT-Pc or 25 μM 6 (a) or with increasing concentrations of 6 (b) or 3 (c). MCF10A cells were incubated for 48 h with either DMSO or with increasing concentrations of 3 or 6 (d). Cells were then lysed and analyzed by western blot with the indicated antibodies. Blot images are representative of at least three independent experiments. Uncropped blots are shown in Supplementary Fig. S16. (e) MDA-MB231 cells were treated with 40 μM 6 (⚬), 4 (▴) or 3 (X). (f) MDA-MB231 cells were treated for 30 h with increasing concentrations of 6 (⚬) or 4 (▴). Insert: cells were treated for 30 h with 80 μM 6 or 10 μM CX-4945. […] Cell death was automatically quantified from images captured every 3 h for the duration of the experiments using an Essen IncuCyte Zoom live-cell microscopy incubator. […]
Cells were lysed in RIPA buffer (10 mM Tris-HCl pH 7.4, 150 mM NaCl, 1% Triton X-100, 0.1% SDS, 0.5% DOC and 1 mM EDTA) containing both protease- and phosphatase-inhibitor cocktails (Sigma-Aldrich; P8340, P2850, P5726). Cell homogenates were quantified using BCA protein Assay kit (Thermo Scientific). […] Luminata Forte Western HRP substrate (Millipore) was added and membranes were read with Fusion Fx7 (PerkinElmer). […] Images were analyzed and band intensities were quantified using ImageJ software. […]
On the technique in general: Immunoblotting shows a protein as a band on a membrane.

A further experiment deals with T2, CK2 (Homo sapiens, UniProt P68400).
T2 construct: made in house; host or cells: Escherichia coli (CK2α)
T2 sequence (P68400 whole entry): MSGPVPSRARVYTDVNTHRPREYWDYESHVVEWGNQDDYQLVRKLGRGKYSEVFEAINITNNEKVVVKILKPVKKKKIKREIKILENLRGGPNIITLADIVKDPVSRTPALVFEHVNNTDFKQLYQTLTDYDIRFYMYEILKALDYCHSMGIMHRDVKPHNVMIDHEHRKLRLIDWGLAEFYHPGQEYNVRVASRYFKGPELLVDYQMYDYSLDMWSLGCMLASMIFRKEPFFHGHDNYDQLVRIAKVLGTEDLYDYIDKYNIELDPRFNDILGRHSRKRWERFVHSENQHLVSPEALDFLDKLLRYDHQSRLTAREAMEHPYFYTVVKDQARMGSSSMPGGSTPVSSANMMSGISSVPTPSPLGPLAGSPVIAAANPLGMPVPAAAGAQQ
The experiment is described as follows: CK2 kinase assay with CK2β-independent peptide substrate […]. It counts as biochemical. The method, then:
The following peptide substrates were employed: a canonical CK2 peptide substrate […] phosphorylated equally by CK2α and CK2α2β2 (CK2β-independent peptide substrate), and […] exclusively phosphorylated by CK2α2β2 (CK2β-dependent peptide substrate)[4]. GST-Olig2-(1-177), was used as a CK2β-dependent protein substrate.
CK2 kinase assays were performed in a final assay volume of 18 μL containing 3 μL of compounds, 3 μL of CK2α (36 ng) and a mixture of 1 mM peptide substrate, 10 mM MgCl2, and 1 μCi [γ^32P]-ATP. Final concentration of ATP was 100 μM. Assays were performed under linear kinetic conditions for 5 min at room temperature before termination by the addition of 60 μL of 4% TCA. ^32P incorporation in peptide substrate was determined as previously described.
Fig. S6. […] (a) Dose-dependent inhibition of CK2. CK2α (40 nM) was incubated with increasing concentrations of compound 1 (●), 4 (π) or 6 (○) in the presence of 20 nM CK2β. CK2 activity was determined with a saturating concentration of CK2β-dependent peptide substrate. (b) Differential effects of 6 on the phosphorylation of CK2 peptide substrates. CK2α (40 nM) was incubated with increasing concentrations of 6 in the presence of 20 nM CK2β. CK2 activity was determined with a saturating concentration of CK2β-independent peptide substrate (?) or CK2β-dependent peptide substrate (○). […]

[2] abbreviates: compound at 50 μM, CK2β-dependent peptide substrate.

Broadly, the inhibition is how much of the control response was suppressed. As usually defined, the IC50 is the concentration needed to halve the response being measured. The low end stands for greater potency, the high end for weaker potency.

Each structure is given as a SMILES string. Values joined by “and” are separate entries in the source; they are usually repeats but may differ in a detail not shown here. Equal entries are not always repeated. “Also recorded” adds a separate entry of the source.

T1 sequence (P68400 whole entry): as above

As for `O=C(OCC1CCN(CCNS(=O)(=O)c2ccccc2)CC1)c1c[nH]c2ccccc12` [Compound 4, (1-(2-(Phenylsulfonamido)ethyl)piperidin-4-yl)methyl 1H-indole-3-carboxylate], the “effect of pan-caspase inhibitor Z-VAD on compound-induced cell death” value in the experiment on MDA-MB231 cells is reported as “not significantly affected”. Besides, in the experiment with MDA-MB231 cells (MDA-MB231, 40 μM), the “time to retraction of membrane extension by the majority of cells” value is on record as 9 h. Moreover, the “concentration at which cell death was already detectable” value in the experiment on MDA-MB231 cells (MDA-MB231, 30 h) was determined as 20 µM. Also, the cell death entry in the experiment on MDA-MB231 cells (MDA-MB231, 30 h, 80 μM) is listed as “massive”. On CK2α2β2 holoenzyme (setting [2]), this compound came in with an inhibition at 50 µM of 57%. This compound came in with an IC50 at CK2α2β2 holoenzyme of 45 µM.

On to `CS(=O)(=O)NCCN1CCC(COC(=O)c2c[nH]c3ccccc23)CC1` [Compound 3, (1-(2-(Methylsulfonamido)ethyl)piperidin-4-yl)methyl 1H-indole-3-carboxylate], for which the cell death result in the experiment with MDA-MB231 cells (MDA-MB231, 40 μM) is given as “without effect”. The same compound showed an inhibition at 50 µM against CK2α2β2 holoenzyme (setting [2]) of 28%. For the same compound, the “Akt phosphorylation at Ser129” value in experiment [1] (100 µM) was “slight but not statistically significant alteration”.

For the compound `COc1[nH]c2ccc(F)cc2c1C(=O)OCC1CCN(CCNS(C)(=O)=O)CC1` [Compound 1], the inhibition at 50 µM amounted to 15% at CK2 (at 50 μM, read-out: inhibition of phosphorylation of canonical CK2β-independent peptide substrate) and 48% on CK2α2β2 holoenzyme (setting [2]). In addition, at CK2α2β2 holoenzyme (0.01% vol/vol Triton X-100, 50 μM compound), the “inhibition of CK2β-dependent phosphorylation upon addition of Triton X-100” value is listed as “not affected”. Moreover, the reversibility of inhibition entry on CK2α2β2 holoenzyme (dilution of the reaction mixture or gel filtration) is listed as “reversed”. Besides, the IC50 at CK2α2β2 holoenzyme was ~50 µM and 50 µM.

For the compound `COc1[nH]c2ccc(F)cc2c1C(=O)OCC1CCN(CCNS(=O)(=O)c2ccccc2)CC1.Cl` [Compound 6], the “phosphorylation of the CK2β-independent peptide substrate” value at CK2 (increasing concentrations, 40 nM CK2α, 20 nM CK2β) is reported as “only weakly affected”. In the experiment with MDA-MB231 cells, the “effect of pan-caspase inhibitor Z-VAD on compound-induced cell death” value is given as “significantly affected; also recorded: significantly attenuated”. Besides, in the experiment with MDA-MB231 cells (80 μM, 24 h), the “sensitivity of MDA-MB231 cells to compound-mediated cell death compared with MCF10A cells” value was “much more sensitive”. Also, the “time to retraction of membrane extension by the majority of cells” value with MDA-MB231 cells (MDA-MB231, 40 μM) turned out to be 9 h. Further, the “concentration at which cell death was already detectable” value in the experiment with MDA-MB231 cells (MDA-MB231, 30 h) came to 20 µM. The cell death result in the experiment with MDA-MB231 cells (MDA-MB231, 30 h, 80 μM) is recorded as “massive”. Moreover, the “Inhibition % at 50 μM” value at CK2α2β2 holoenzyme (setting [2]) was 80%. Moreover, the “Akt phosphorylation at Ser129” value in experiment [1] (30 µM) is listed as “slight but not statistically significant alteration”.
